According to US20120101163A1, “COMPOSITION FOR INHIBITING CANCER METASTASIS” (TAIPEI MEDICAL UNIVERSITY, priority 2010, published 2012):

Experiments:
[1] = test system: human umbilical vein endothelial cells; experiment: Cell viability assay of human umbilical vein endothelial cells; format: cell-based; conditions: 24 hours
Method: A medium in a culturing plate containing cells grown covering the whole bottom of the culturing plate, was removed. The cells were washed with 10 ml of PBS, and then suspended and mixed well with 10 ml of medium (a part of the cells need to be suspended with Trypsin-EDTA buffer). The numbers of the cells were calculated by a hemocytometer, and the cells were diluted to an appropriate cell concentration and added into the wells of a 24 well culturing plate by an amount of 500 μl/well. The 24 well culturing plates were placed in an incubator at 37° C. in a humidified atmosphere containing 5% CO2. After the cells were attached onto the bottom of the wells, the medium in each well was removed, and fresh mediums with different concentrations of a test drug were added into wells, respectively (if the cells were suspension cells, the fresh medium may be added into the wells, directly). Then, the 24 well culturing plates were placed in an incubator at 37° C. in a humidified atmosphere containing 5% CO2 for 24 hours. After that, an upper medium in each well was removed. The cells were washed with a PBS buffer twice, and then an MTT solution which was prepared with a medium was added to each well. After the 24 well culturing plates were placed in an incubator at 37° C. for reacting 4-6 hours, an upper medium in each well was removed, and 100 μl of DMSO was added to each well to solubilize the formazan precipitates. After that, an ELISA reader was used to determine the absorbance for each well at 600 nm.
After human umbilical vein endothelial cells were treated with the different concentrations of L-Aspartic acid β-hydroxamate (CH) and different concentrations of L-Glutamic acid γ-hydroxamate (DH) for 24 hours, respectively, the cell viability assays were performed to the treated human umbilical vein endothelial cells and the angiogenesis conditions of the human umbilical vein endothelial cells were recorded. The results of the cell viability assays are shown as FIGS. 13 (A) and 14 (A). Photographs for the human umbilical vein endothelial cells treated with L-Aspartic acid β-hydroxamate (CH) and human umbilical vein endothelial cells treated with L-Glutamic acid γ-hydroxamate (DH) are shown as FIGS. 13 (B) and 14 (B), respectively.

[2] = test system: human umbilical vein endothelial cells; experiment: Tube formation assay (angiogenesis); format: cell-based
Method: 13. Tube Formation Assay (Malinda et al., 1999)
1μ-Slide Angiogenesis ibiTreat chambers were coated with 10 μl Matrigel™ Mixtrix and placed in an incubator at 37° C. for 1 hour. 40 μl of a 3×10^5 cells/ml cell suspension was added to each chamber and left still for 20 minutes to let the cells attach to the chamber. After that, the medium in each chamber was removed. Fresh mediums with different concentrations of a test drug were added to the chambers, respectively and placed in an incubator at 37° C. After 18 hours, the angiogenesis appearance in each chamber was observed and photographed for recording.

[3] = test system: matrix metalloproteinase-2; experiment: Gelatin gel zymography of PMA-induced HT 1080 cells, MMP-2 activity; format: cell-based, Human; conditions: HT 1080 cells, 0.4, 0.8, 1.2 and 1.6 mM, 24 hours
Method: (§1) 4. Gelatin Gel Zymography (Shim et al., 2003; Park et al., 2005; Hwang et al., 2006)
(§2) HT 1080 cells with appropriate cell numbers were cultured in 60 mm culturing plates for 12 hours, respectively. After the cells were attached onto the bottom of the plate and formed a monolayer, the medium in the plate was removed. Fresh serum free mediums with different concentrations of a test sample were added to the plates, respectively, and 100 nM PMA was added to each plate to induce the cells to express great quantities of matrix metalloproteinase-2 and matrix metalloproteinase-9, and the plates were placed in a temperature of 37° C. for 24 hours. After centrifugation, each cultured supernatant were saved and mixed with SDS-sample buffer under the same protein contents which were then injected into a 10% SDS-polyacrylamide gel (containing 1 mg/ml gelatin) and then electrophoresed. After the electrophoresis was completed, the gel was taken out and washed with 20 mM Tris-HCl containing 25% isopropanol three times; 10 minutes per time. Then the gel was equilibrated with 20 mM Tris-HCl for 30 minutes, and finally an incubate buffer (5 mM CaCl2 and 1 mM ZnCl2) was added to the gel and reacted with the gel overnight. Then the gel was stained with coomassie blue, and positions having matrix metalloproteinase activity of the gel presented a white color.

[4] = test system: matrix metalloproteinase-9; experiment: Gelatin gel zymography of PMA-induced HT 1080 cells, MMP-9 activity; format: cell-based, Human; conditions: HT 1080 cells, 0.4, 0.8, 1.2 and 1.6 mM, 24 hours
Method: as §1, §2

| SMILES | cytotoxicity to human umbilical vein endothelial cells ([1]; 0.25 mM) | viability of human umbilical vein endothelial cells ([1]; 0.75 mM) | angiogenesis inhibition at 0.25 mM ([2]; 0.25 mM) | inhibition rate to angiogenesis ([2]; about 0.1-1.5 mM, stated as embodiment) | angiogenesis compared with the control group ([2]; increasing concentrations) | matrix metalloproteinase-2 inhibiting activity [3] | matrix metalloproteinase-9 inhibiting activity [4] |
| --- | --- | --- | --- | --- | --- | --- | --- |
| NC(CC(=O)NO)C(=O)O [CH, L-Aspartic acid β-hydroxamate] | no cytotoxicity | slight decreases | already had an effect of inhibiting angiogenesis | 10-90% | significantly inhibited |  |  |
| N[C@@H](CCC(=O)O)C(=O)O [D, L-Glutamic acid, reference compound] |  |  |  |  |  | no inhibiting effect | no inhibiting effect |
